Laboratory results: PMC5322338 (Scientific Reports, 2017)
One block for each substance: values may come before it.

Columns and labels:
caspase-9 = caspase-9 in caspase buffer supplemented with 1.0 M sodium citrate, IQF library screening and kinetics; conditions: human, 37 °C, up to 30 min
caspase-10 = caspase-10 in caspase buffer supplemented with 1.0 M sodium citrate, IQF library screening and kinetics; conditions: human, 37 °C, up to 30 min
caspase-8 [1] = experiment: caspase-8 in caspase buffer supplemented with 1.0 M sodium citrate, IQF library screening and kinetics; conditions: human, 37 °C, up to 30 min
trypsin [2] = experiment: IQF substrate hydrolysis kinetics with trypsin; type: biochemical; conditions: for kcat/Km values: ACC-GGLSX*IVK(DNP)G substrates, residue named = P1, trypsin
Method: All kinetic measurements were performed using a Spectra Max Gemini XPS spectrofluorimeter (Molecular Devices) at 37 °C. […] The substrate concentrations were varied, and the enzyme concentration was kept constant in each assay; the total reaction volume was 100 μl. Measurements were conducted for 30 min, and only the linear part of the progress curve was used to determine the reaction velocity. The measurements were repeated, and the data presented are the average of at least three measurements. The catalytic parameters kcat and KM were established using GraphPad Prism software to directly fit the initial velocities and initial substrate concentrations to the Michaelis-Menten equation using non-linear regression analysis.
Trypsin was assayed in a buffer containing 0.05 M Tris, 0.15 M NaCl, and 0.01% Triton X100 at pH 7.6. The enzyme was incubated with the assay buffer for 10 min at 37 °C prior to the substrate addition and the measurement. Eight internally quenched substrates were tested in the assay. The trypsin concentration for substrates containing Arg and Lys at P1 was 0.1 nM; for Arg(Me) substrates, the enzyme concentration was 30 nM; and for all other substrates, the enzyme concentration was 200 nM.

caspase-3 [3] = experiment: caspase-3 in caspase buffer, IQF library screening and kinetics; conditions: human, 37 °C, up to 30 min
caspase-7 [4] = experiment: caspase-7 in caspase buffer, IQF library screening and kinetics; conditions: human, 37 °C, up to 30 min
[5] = molecular target: T1, Human neutrophil elastase (Homo sapiens, UniProt P08246); experiment: IQF substrate hydrolysis kinetics with neutrophil elastase; type: biochemical; conditions: substrate 0.3-5 μM, 0.1 M HEPES, 0.5 M NaCl pH 7.5, 37 °C, mean of at least three, SD <10%
T1 construct: purchased Biocentrum (Krakow, Poland)
T1 sequence (P08246 30-267): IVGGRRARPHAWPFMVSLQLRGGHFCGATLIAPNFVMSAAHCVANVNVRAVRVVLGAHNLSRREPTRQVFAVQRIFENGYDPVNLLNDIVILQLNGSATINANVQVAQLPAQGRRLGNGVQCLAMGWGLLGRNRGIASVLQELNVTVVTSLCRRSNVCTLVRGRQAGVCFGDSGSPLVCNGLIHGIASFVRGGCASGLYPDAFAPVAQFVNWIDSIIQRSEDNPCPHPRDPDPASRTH
Method: (§1) All kinetic measurements were performed using a Spectra Max Gemini XPS spectrofluorimeter (Molecular Devices) at 37 °C. For the substrates with the new donor acceptor pair, ACC/DNP, the excitation wavelength was 355 nm, and the emission wavelength was 460 nm; for MCA/DNP, the corresponding values were 325 and 420 nm, respectively. The substrate concentrations were varied, and the enzyme concentration was kept constant in each assay; the total reaction volume was 100 μl. Measurements were conducted for 30 min, and only the linear part of the progress curve was used to determine the reaction velocity. The measurements were repeated, and the data presented are the average of at least three measurements. The catalytic parameters kcat and KM were established using GraphPad Prism software to directly fit the initial velocities and initial substrate concentrations to the Michaelis-Menten equation using non-linear regression analysis.
Assays with neutrophil elastase were performed in a buffer containing 0.1 M HEPES and 0.5 M NaCl at pH 7.5[9]. The enzyme was incubated in assay buffer for 10 min at 37 °C prior to the substrate addition and the measurement. For elastase, the concentration of substrates containing ACC ranged from 0.3 to 5 μM, and the enzyme concentration was 0.344 nM. The concentration of substrates containing MCA was ranged from 0.3 to 5 μM, and the enzyme concentration was 1.4 nM.

Trypsin [6] = experiment: trypsin in 0.05 M Tris, 0.15 M NaCl, 0.01% Triton X100, pH 7.6; conditions: 37 °C, up to 30 min
caspase-7 [7] = molecular target: T2, caspase-7 (Homo sapiens, UniProt P55210); experiment: IQF substrate hydrolysis kinetics with caspase-7; type: biochemical; conditions: substrate 1-50 μM, Pipes buffer pH 7.2-7.4, 37 °C, mean of at least three, SD <10%
T2 construct: made in house
T2 sequence (P55210 24-198 limits assumed): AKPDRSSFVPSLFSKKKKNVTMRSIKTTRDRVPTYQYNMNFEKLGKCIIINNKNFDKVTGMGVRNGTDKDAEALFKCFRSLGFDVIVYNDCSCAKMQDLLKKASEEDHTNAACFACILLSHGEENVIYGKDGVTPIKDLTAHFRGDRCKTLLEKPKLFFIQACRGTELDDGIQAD
T2 sequence (P55210 207-303 limits assumed): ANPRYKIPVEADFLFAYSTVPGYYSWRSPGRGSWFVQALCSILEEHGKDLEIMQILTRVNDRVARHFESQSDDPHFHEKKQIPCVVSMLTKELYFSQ
Method: as §1
(§2) Caspase assays were performed in a buffer containing 20 mM Pipes, 0.1 M NaCl, 1 mM EDTA, 10 mM DTT, and 10% (w/v) sucrose at pH 7.2 to 7.4[61]. The buffer used for caspase-8, caspase-9 and caspase-10 was supplemented with 1 M sodium citrate. Each caspase was incubated with assay buffer for 30 min at 37 °C before the substrates were added. For caspase-3, the concentration of substrates containing ACC or MCA on the measurement plate ranged from 1 to 50 μM, and the enzyme concentration ranged from 1 to 3 nM. For caspase-7, the concentration of substrates containing ACC or MCA on the measurement plate ranged from 1 to 50 μM, and the enzyme concentration ranged from 10 to 30 nM. For caspase-8, the concentration of a substrates containing ACC or MCA on the measurement plate ranged from 4 to 80 μM, and the enzyme concentration ranged from 20 to 50 nM.
(§3) To obtain further insight into the caspase P1-P1′ preferences, we determined the kinetic parameters for selected IQF substrates. The kinetic analysis was performed in a similar manner to that described above (Substrate Kinetics). The buffers used for caspase-8, caspase-9, and caspase-10 were supplemented with 1.0 M sodium citrate. The enzyme concentrations were as follows: caspase-3, 6 nM; caspase-7, 25 nM; caspase-8, 30–60 nM; caspase-9, 20–140 nM; and caspase-10, 25–125 nM. When testing initiator caspases, the higher enzyme concentration was used for non-optimal LEHE/X substrates.

caspase-3 [8] = molecular target: T3, caspase-3 (Homo sapiens, UniProt P42574); experiment: IQF substrate hydrolysis kinetics with caspase-3; type: biochemical; conditions: substrate 1-50 μM, Pipes buffer pH 7.2-7.4, 37 °C, mean of at least three, SD <10%
T3 construct: made in house
T3 sequence (P42574 29-175 limits assumed): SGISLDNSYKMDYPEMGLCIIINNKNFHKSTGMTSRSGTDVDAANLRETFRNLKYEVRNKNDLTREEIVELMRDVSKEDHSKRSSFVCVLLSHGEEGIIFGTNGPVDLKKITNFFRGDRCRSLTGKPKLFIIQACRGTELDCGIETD
T3 sequence (P42574 176-277 limits assumed): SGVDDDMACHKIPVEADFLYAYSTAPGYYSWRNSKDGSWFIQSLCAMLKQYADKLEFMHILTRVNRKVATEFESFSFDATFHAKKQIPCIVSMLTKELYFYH
Method: as §1, §2, §3

caspase-8 [9] = molecular target: T4, caspase-8 (Homo sapiens, UniProt Q14790); experiment: IQF substrate hydrolysis kinetics with caspase-8; type: biochemical; conditions: substrate 4-80 μM, Pipes buffer pH 7.2-7.4 with 1 M sodium citrate, 37 °C, mean of at least three, SD <10%
T4 construct: made in house
Method: as §1, §2, §3

[10] = ACC-GGLS(P1)*IVK(DNP)G-NH2 hydrolysis by trypsin, trypsin 0.1 nM (Arg, Lys), 30 nM (Arg(Me)), 200 nM (all others), 0.05 M Tris, 0.15 M NaCl, 0.01% Triton X100 pH 7.6, 37 °C, SD <10% (Arg/Lys), <15% (modified)
[11] = ACC/Lys(DNP) substrate, elastase 0.34 nM, ex 355/em 460 nm
[12] = MCA/Lys(DNP) substrate, elastase 1.4 nM, ex 325/em 420 nm
[13] = MCA/Lys(DNP) substrate, caspase-7 30 nM, ex 325/em 420 nm
[14] = MCA/Lys(DNP) substrate, caspase-3 3.0 nM, ex 325/em 420 nm
[15] = MCA/Lys(DNP) substrate, caspase-8 50 nM, ex 325/em 420 nm
[16] = ACC/Lys(DNP) substrate, caspase-7 10 nM, ex 355/em 460 nm
[17] = ACC/Lys(DNP) substrate, caspase-3 1.0 nM, ex 355/em 460 nm
[18] = ACC/Lys(DNP) substrate, caspase-8 20 nM, ex 355/em 460 nm

T4 sequence (Q14790 217-374 limits assumed): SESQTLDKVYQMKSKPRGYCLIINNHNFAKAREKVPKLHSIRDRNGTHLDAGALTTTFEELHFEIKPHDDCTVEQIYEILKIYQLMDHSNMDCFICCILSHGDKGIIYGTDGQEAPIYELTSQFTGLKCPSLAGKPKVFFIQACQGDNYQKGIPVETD
T4 sequence (Q14790 385-479 limits assumed): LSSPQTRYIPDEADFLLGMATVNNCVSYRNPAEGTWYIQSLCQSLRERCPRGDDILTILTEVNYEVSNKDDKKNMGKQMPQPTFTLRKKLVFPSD

Substance: Arginine
Km (trypsin [2]; [10]): 2.5 µM
kcat (trypsin [2]; [10]): 24.1 s⁻¹
kcat/KM (trypsin [2]; [10]): 9 624 000 s^−1M^−1
kcat/Km values (trypsin [2]): 9,624,000 M^−1s^−1

Substance: ACC-GDEVE/XKK(dnp)G-NH2 [DEVE/S]
cleaved bond (caspase-3 [3]): E-S
cleaved bond (caspase-7 [4]): E-S

Substance: ACC-GAEPV*SLK(dnp)L-NH2 [ACC/Lys(DNP) internally quenched fluorescent substrate for human neutrophil elastase]
Km [5, 11]: 1.22 µM
kcat [5, 11]: 2.44 s⁻¹
kcat/KM [5, 11]: 2 006 000 M^−1s^−1

Substance: ACC-GDEVD/XKK(dnp)G-NH2 [DEVD/A]
cleaved bond (caspase-3 [3]): D-A
cleaved bond (caspase-7 [4]): D-A

Substance: MCA-GAEPV*SLK(dnp)L-NH2 [MCA/Lys(DNP) internally quenched fluorescent substrate for human neutrophil elastase]
Km [5, 12]: 2.27 µM
kcat [5, 12]: 2.58 s⁻¹
kcat/KM [5, 12]: 1 147 219 M^−1s^−1

Substance: ACC-GGLS(P1)*IVK(DNP)G-NH2 [ACC-GGLS(P1)*IVK(DNP)G-NH2, P1 = Ornithine]
cleaved bond (Trypsin [6]): Ornithine-I

Substance: Lysine
Km (trypsin [2]; [10]): 2.8 µM
kcat (trypsin [2]; [10]): 4.2 s⁻¹
kcat/KM (trypsin [2]; [10]): 1 500 000 s^−1M^−1
kcat/Km values (trypsin [2]): 1,500,000 M^−1s^−1

Substance: ACC-GGLS(P1)*IVK(DNP)G-NH2 [ACC-GGLS(P1)*IVK(DNP)G-NH2, P1 = Arginine]
cleaved bond (Trypsin [6]): Arginine-I

Substance: Ornithine
Km (trypsin [2]; [10]): 21.9 µM
kcat (trypsin [2]; [10]): 0.0017 s⁻¹
kcat/KM (trypsin [2]; [10]): 78 s^−1M^−1

Substance: ACC-GDEVD/XKK(dnp)G-NH2 [DEVD/S]
cleaved bond (caspase-3 [3]): D-S
cleaved bond (caspase-7 [4]): D-S

Substance: MCA-GDEVD*GVK(dnp)D-NH2 [MCA/Lys(DNP) internally quenched fluorescent substrate for caspases]
Km (caspase-7 [7]; [13]): 6.17 µM
kcat (caspase-7 [7]; [13]): 0.68 s⁻¹
kcat/KM (caspase-7 [7]; [13]): 106 000 M^−1s^−1
Km (caspase-3 [8]; [14]): 4.67 µM
kcat (caspase-3 [8]; [14]): 11.24 s⁻¹
kcat/KM (caspase-3 [8]; [14]): 2 359 000 M^−1s^−1
Km (caspase-8 [9]; [15]): 11.7 µM
kcat (caspase-8 [9]; [15]): 0.32 s⁻¹
kcat/KM (caspase-8 [9]; [15]): 26 300 M^−1s^−1

Substance: ACC-GGLS(P1)*IVK(DNP)G-NH2 [ACC-GGLS(P1)*IVK(DNP)G-NH2, P1 = Citrulline]
cleaved bond (Trypsin [6]): Citrulline-I

Substance: ACC-GDEVD*GVK(dnp)D-NH2 [ACC/Lys(DNP) internally quenched fluorescent substrate for caspases]
Km (caspase-7 [7]; [16]): 8.36 µM
kcat (caspase-7 [7]; [16]): 0.47 s⁻¹
kcat/KM (caspase-7 [7]; [16]): 56 800 M^−1s^−1
Km (caspase-3 [8]; [17]): 6.74 µM
kcat (caspase-3 [8]; [17]): 7.52 s⁻¹
kcat/KM (caspase-3 [8]; [17]): 1 116 000 M^−1s^−1
Km (caspase-8 [9]; [18]): 11 µM
kcat (caspase-8 [9]; [18]): 0.32 s⁻¹
kcat/KM (caspase-8 [9]; [18]): 29 400 M^−1s^−1

Substance: Alanine
KM (trypsin [2]; [10]): No measurable hydrolysis
kcat (trypsin [2]; [10]): No measurable hydrolysis
kcat/KM (trypsin [2]; [10]): No measurable hydrolysis
kcat/Km values (trypsin [2]): did not recognize

Now from value to substance, other results behind:

cleaved bond (caspase-9): D-A
cleaved bond (caspase-10): D-A
cleaved bond (caspase-8 [1]): D-A
Substance: ACC-GLEHD(G/A/S)KK(dnp)G-NH2 [LEHD/A]

cleaved bond (caspase-9): E-A
cleaved bond (caspase-10): E-A
cleaved bond (caspase-8 [1]): E-A
Substance: ACC-GLEHE(G/A/S)KK(dnp)G-NH2 [LEHE/A]

cleaved bond (caspase-3 [3]): D-G
cleaved bond (caspase-7 [4]): D-G
Substance: ACC-GDEVD/XKK(dnp)G-NH2 [DEVD/G]

cleaved bond (caspase-9): D-G
cleaved bond (caspase-10): D-G
cleaved bond (caspase-8 [1]): D-G
Substance: ACC-GLEHD(G/A/S)KK(dnp)G-NH2 [LEHD/G]

Km (trypsin [2]; [10]): 90.3 µM
kcat/KM (trypsin [2]; [10]): 4 s^−1M^−1
Substance: Citrulline
kcat (trypsin [2]; [10]): 0.000359 s⁻¹

cleaved bond (caspase-9): E-G
cleaved bond (caspase-10): E-G
cleaved bond (caspase-8 [1]): E-G
Substance: ACC-GLEHE(G/A/S)KK(dnp)G-NH2 [LEHE/G]

cleaved bond (caspase-9): D-S
cleaved bond (caspase-10): D-S
cleaved bond (caspase-8 [1]): D-S
Substance: ACC-GLEHD(G/A/S)KK(dnp)G-NH2 [LEHD/S]

cleaved bond (caspase-9): E-S
cleaved bond (caspase-10): E-S
cleaved bond (caspase-8 [1]): E-S
Substance: ACC-GLEHE(G/A/S)KK(dnp)G-NH2 [LEHE/S]
